One substance from patent US20240116994A1, “Peptides And Use Thereof For Diagnosing And Treating Antiphospholipid Syndrome” (UNIVERSITE DE GENEVE, priority 2021, published 2024) can be followed below.

The subject of test [1] is aPL from a pool of 13 Human patients. Put plainly: Surface plasmon resonance, aPL flown over biotin-peptide-coated SA chip (BIAcore X100). In kind it is binding. How it is done:
The kinetics and affinity of protein-protein and protein-lipid interactions were determined using a BIAcore X100 instrument. 1 mg/ml of biotin-tagged peptide (ligand) was immobilized using a sensor chip SA (GE Healthcare) surface, whereas aPL from a pool of 13 Human patients were flown as analyte. The first flow cell of the sensor chip was used as a control surface (no protein), whereas the second flow cell was employed as the active surface. A range of dilution of aPL analytes prepared in the same buffer was injected on both flow cell surfaces at a flow rate of 30 μl/min. Association and dissociation times for each protein injection were set at 90 and 120 s, respectively. In all cases, sensorgrams were obtained from three different dilutions of aPL.
The de Groot's research group has pointed at the importance of hydrophobic character of the plate during coating of R39-R43 epitope. In order to abrogate of the plate-dependent aPL binding, the Ia-1 and Ib-1 peptides as well as the R39-R43 with a biotin at their N-terminal were synthetized and coated a streptavidin plate. In this configuration, the different peptides are flag oriented in the space preventing any interaction with the plate. It was thus observed that the flag-type orientation of R39-R43-biot leads to 8.52×more interaction with aPL while they show 9.63×more binding for Ib-1-biot presenting the same position. […] The surface plasmon resonance (SPR) technique is used to determine the relative avidity of aPL for R39-R43-biot and Ib-1-biot. The interaction between aPL and immobilized R39-R43-biot or Ib-1-biot is monitored by flowing various concentrations of aPL over a R39-R43-biot- or Ib-1-biot-coated chip surface (FIG. 1C). Through SPR experiments, it appears that aPL avidity for Ib-1-biot presents a resonance unit (RU) of 51.49 at 1/1,000 of dilution and a RU of 27.61 at 1/10,000 of dilution while, at the same dilution, it present a RU of 27.36 and a RU of 17.99 with R39-R43-biot, respectively (FIG. 1C). However, at higher concentrations, the peptides seems to show no differences in the interactions with aPL. […] Considering that IgG valency, it was decided to generate a dimeric Ib-1-biot peptide (Ib-1-biot-2x). This new polypeptide carries thus two optimized epitopes which have the opportunity to interact with two Fab fragment present on aPL. […] At higher concentration, i.e dilution of 1/100, the avidity for dimeric peptide is 28×more than for the monomeric (FIG. 1D).
It was performed a peptide substitution scan of Ib-1-biot VSRGGMRKKKKPLTG (SEQ ID NO: 6) carrying the optimized epitope Ib-1-biot and based on an exchange of the underlined amino acid positions with the 20 main amino acids. The resulting peptide microarrays contained 140 different peptides. It was observed that the peptide substitution of the position n° 1, 2, 12 and 15 have significant influences on the ability to interact with aPL from patients 1, 2, 3, 4 and, in particular, form the plasma pool. Indeed, the substitution of the position 1, 12 or 15 by an Arginine (R) or a Lysine (K) increases the avidity of the peptide for all aPL from patients. […] In this context, the enhancement relative to Ib-1.0-biot-2x of identified peptides was evaluated (FIG. 2A). […] However, streptavidin being known to produce unspecific binding, it was used the ratio between aPL and a pool of human plasma as control (B/B0) (FIG. 2B, upper panel). This representation therefore allows to distinguish the real levels of interactions. It was then performed a dilution assay from dilution of 1/100 to 1/1,200,000 and it was observed relevant differences between the different identified peptides. By comparison of area under the curve (AUC), it was possible to detect the most prone-interacting peptide with aPL. Thus, the peptide IIa-8.0-biot-2x obtained the higher AUC (FIG. 2B, bottom panel). […]

Test [2] concerns binding of aPL to IIa-8.0-biot-2x. Put plainly: Inhibition experiments: remaining reactivity of pre-treated aPL on IIa-8.0-biot-2x ELISA. Particulars: aPL preincubated 90 min at RT with beads 15, 30 and 60 pmol. Also noted: species or system Human. The protocol:
To examine the functional ability of IIa-5.0, IIa-7.1, IIa-8.0 peptides and R39-R43 to inhibit the activity of pool of aPL isolated from APS patients, the remaining reactivity of aPL was evaluated for IIa-8.0-biot-2x which had previously been treated with increasing concentration of peptides. […] The flag-type orientation prevents potential interactions with the plate or with itself, particularly in solution. Streptavidin magnetic beads associated with IIa-5.0-biot-2x, IIa-7.1-biot-2x and Ha-8.0-biot-2x peptides have been generated. aPL was treated with increasing concentrations of beads before to measure the remaining binding activity of aPL on IIa-8.0-biot-2x ELISA (FIG. 7C).
To assess the ability of IIa-5.0-2x, IIa-7.1-2x and IIa-8.0-2x to inhibit in vitro the binding of aPL to IIa-8.0-biot-2x. aPL pool sera were preincubated for 90 min at RT with increasing concentrations (1, 10 and 10011 g/ml) of monomeric, dimeric IIa-5.0, IIa-7.1 and IIa-8.0 peptides and of IIa-5.0-biot-2x, IIa-7.1-biot-2x and IIa-8.0-biot-2x-associated beads (15, 30 and 60 pmol). 120 pmol correspond to the amount of IIa-8.0-biot-2x coated in well of Streptavidin Coated High Capacity Plates 96 well plates (Thermofisher). After the pre-incubation time, the serum was added anti-b2GP1 IgG (anti-IIa-8.0-2x) ELISA according to the protocol.
A general note: An ELISA detects its analyte on a solid surface through an enzyme-linked reagent.

Where no end group is shown, it is not given here. Bounds are passed on as bounds.

Consider “IIa-8.0-biot-2x: dimeric biotinylated IIa-8.0 peptide; also used associated with streptavidin magnetic beads (RSRGGMRKRKKPLTGRSRGGMRKRKKPLTG; also: dimeric peptide (two IIa-8.0 copies), biotinylated, site not given here)”, for which the “SPR AUC relative to the initial target R39-43” value in test [1] is reported as more than 10 ×. Moreover, the “avidity of aPL relative to avidity for Ib-1.0-biot-2x” value in test [1] (all dilutions (FIG. 2C upper panel)) is 1.3 ×. The results for the “SPR AUC relative to Ib-1.0-biot-2x” value in test [1] (dilution 1/100 (FIG. 2C bottom panel)), in test [1] (dilution 1/1,000 (FIG. 2C bottom panel)) and in test [1] (dilution 1/10,000 (FIG. 2C bottom panel)) were 2.3 ×, 3.43 × and 10.5 ×, respectively. Further, the “sustained interaction / stability of binding with aPL (shape of SPR curves)” value in test [1] (stabilization curves) was “sustained stability of binding is also significantly increased”. Besides, in test [2], the “inhibition of aPL binding to IIa-8.0-biot-2x ELISA by peptide associated with streptavidin magnetic beads” value is recorded as “dose dependently inhibited”.
